According to ChEMBL document CHEMBL1201862, “PubChem BioAssay data set” (2004):
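Protocol summary: plate cells (96-well), add compound at 5 concentrations, incubate 48 h, interpolate endpoints linearly. GI50: concentration for 50% inhibition of growth.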 Activity calls are given as the source filed them. No stated cut-off is given here; in the data, active = GI50 up to about 1.1 µM and inactive = higher.

Assays:
Test in all cases: growth of human tumour cells (NCI), 48 h
A549 = system: A549
CAKI-1 = system: CAKI-1
EKVX = system: EKVX
HL-60 = system: HL-60
HOP-92 = system: HOP-92
HT-29 = system: HT-29
Hs-578T = system: Hs-578T
K562 = system: K562
MDA-MB-435 = system: MDA-MB-435
Malme-3M = system: Malme-3M
NCI/ADR-RES = system: NCI/ADR-RES
PC-3 = system: PC-3
RXF 393 = system: RXF 393
SF-539 = system: SF-539
SK-MEL-2 = system: SK-MEL-2
SK-MEL-5 = system: SK-MEL-5
SN12C = system: SN12C
SNB-19 = system: SNB-19
T47D = system: T47D
UACC-62 = system: UACC-62

Row | SMILES | GI50 (A549) | GI50 (CAKI-1) | GI50 (EKVX) | GI50 (HL-60) | GI50 (HOP-92) | GI50 (HT-29) | GI50 (Hs-578T) | GI50 (K562) | GI50 (MDA-MB-435) | GI50 (Malme-3M) | GI50 (NCI/ADR-RES) | GI50 (PC-3) | GI50 (RXF 393) | GI50 (SF-539) | GI50 (SK-MEL-2) | GI50 (SK-MEL-5) | GI50 (SN12C) | GI50 (SNB-19) | GI50 (T47D) | GI50 (UACC-62)
1 | c1ccc(C2=NN(c3nc4ccccc4s3)C3(CCCCC3)N2)nc1 | 27.4 µM (inactive) | 29.4 µM (inactive) | 33.9 µM (inactive) | 25.2 µM (inactive) | 31.7 µM (inactive) | 19.9 µM (inactive) | 31.7 µM (inactive) | 16.6 µM (inactive) | 23.4 µM (inactive) | 11.7 µM (inactive) | 19.7 µM (inactive) | 15.8 µM (inactive) | 21.9 µM (inactive) | 46.3 µM (inactive) | 18.4 µM (inactive) | 20.1 µM (inactive) | 19.7 µM (inactive) | 40.2 µM (inactive) | 7.64 µM (inactive) | 30.7 µM (inactive)
2 | C(=C/c1nnnn1-c1ccccc1)/Nc1ccccc1 | 52.4 µM (inactive) | 43 µM (inactive) | 40.6 µM (inactive) | 41.2 µM (inactive) | 24.4 µM (inactive) | 28.2 µM (inactive) | 31.8 µM (inactive) | 20.7 µM (inactive) | 26.1 µM (inactive) | 31.4 µM (inactive) | 24.6 µM (inactive) | 27.2 µM (inactive) | 53 µM (inactive) | 23.3 µM (inactive) | 2.64 µM (inactive) | 14.5 µM (inactive) | 30.8 µM (inactive) | 26.7 µM (inactive) | 29.6 µM (inactive) | 20.2 µM (inactive)
3 | Sc1nn2c(COc3cc(Cl)c(OCc4nnc5sc(S)nn45)cc3Cl)nnc2s1 | > 100 µM (inactive) | > 100 µM (inactive) | 5.51 µM (inactive) | 37.8 µM (inactive) | 38.9 µM (inactive) | 43.3 µM (inactive) | > 100 µM (inactive) | 33.7 µM (inactive) | 43.9 µM (inactive) | 40.1 µM (inactive) | > 100 µM (inactive) | > 100 µM (inactive) | 39.2 µM (inactive) | 87.5 µM (inactive) | > 100 µM (inactive) | 41.2 µM (inactive) | 41.2 µM (inactive) | > 100 µM (inactive) | 26 µM (inactive) | 28.6 µM (inactive)
4 | COc1ccc(/C=C2\N=C3N(Cc4ccccc4)C=C(N)N3C2=O)cc1 | > 100 µM (inactive) | > 100 µM (inactive) | 59.4 µM (inactive) | 55 µM (inactive) | 58.7 µM (inactive) | > 100 µM (inactive) | 28.8 µM (inactive) | > 100 µM (inactive) | > 100 µM (inactive) | > 100 µM (inactive) | > 100 µM (inactive) | > 100 µM (inactive) | > 100 µM (inactive) | > 100 µM (inactive) | > 100 µM (inactive) | 46.7 µM (inactive) | > 100 µM (inactive) | 20.8 µM (inactive) | > 100 µM (inactive) | > 100 µM (inactive)
5 | C[C@@H](CC(O)C(O)C(C)(C)O)C1CCC23CC12CCC1[C@@]2(C)CCC(O)C(C)(C)C2CC(OC2OC(CO)C(O)C(O)C2O)[C@]13C (stereo not given in full) | > 10 µM (inactive) | > 10 µM (inactive) | > 10 µM (inactive) | > 10 µM (inactive) | > 10 µM (inactive) | > 10 µM (inactive) | > 10 µM (inactive) | > 10 µM (inactive) | > 10 µM (inactive) | > 10 µM (inactive) | > 10 µM (inactive) | > 10 µM (inactive) | > 10 µM (inactive) | > 10 µM (inactive) | > 10 µM (inactive) | > 10 µM (inactive) | > 10 µM (inactive) | > 10 µM (inactive) | > 10 µM (inactive) | > 10 µM (inactive)
6 | COC(=O)CN(CC(O)C(NC(C)=O)C(O)C=O)C(=O)OCc1ccccc1 (stereo not given) | > 100 µM (inactive) | > 100 µM (inactive) | > 100 µM (inactive) | > 100 µM (inactive) | > 100 µM (inactive) | > 100 µM (inactive) | > 100 µM (inactive) | > 100 µM (inactive) | > 100 µM (inactive) | > 50.5 µM (inactive) | > 100 µM (inactive) | > 100 µM (inactive) | > 100 µM (inactive) | > 100 µM (inactive) | > 100 µM (inactive) | > 100 µM (inactive) | > 100 µM (inactive) | > 100 µM (inactive) | > 100 µM (inactive) | > 100 µM (inactive)
7 | O=[N+]([O-])/C(C(Cl)=C(Cl)Cl)=C(/Cl)SCc1ccccc1 | 16.3 µM (inactive) | 3.18 µM (inactive) | 20.4 µM (inactive) | 0.229 µM (active) | 4.33 µM (inactive) | 11.5 µM (inactive) | 4.48 µM (inactive) | 1.15 µM (inactive) | 2.35 µM (inactive) | 2.47 µM (inactive) | 1.85 µM (inactive) | 16 µM (inactive) | 3.01 µM (inactive) | 6.62 µM (inactive) | 22.1 µM (inactive) | 8.43 µM (inactive) | 3.61 µM (inactive) | 22.5 µM (inactive) | 14.6 µM (inactive) | 3.94 µM (inactive)
8 | O=[N+]([O-])c1cccc2nc3ccccc3c(NCCC[N+]3([O-])CCCCC3)c12 | 0.521 µM (active) | 20 µM (inactive) | 0.438 µM (active) | 0.745 µM (active) | 0.275 µM (active) | 0.301 µM (active) | 0.82 µM (active) | 1.1 µM (active) | 0.18 µM (active) | 0.168 µM (active) | > 100 µM (inactive) | 0.255 µM (active) | 0.647 µM (active) | 0.479 µM (active) | 0.179 µM (active) | 0.36 µM (active) | 0.39 µM (active) | 0.638 µM (active) | 0.41 µM (active) | 0.272 µM (active)
9 | CC(C(=O)[O-])S(=O)(=O)O.CCc1c2cc(OC)c(OC)cc2cc2c3cc(OC)c(OC)cc3cc[n+]12 | 47.4 µM (inactive) | 60.4 µM (inactive) | 67.6 µM (inactive) | 20.8 µM (inactive) | 29 µM (inactive) | 45.2 µM (inactive) | 4.81 µM (inactive) | 7.57 µM (inactive) | 4.27 µM (inactive) | 8.79 µM (inactive) | 38.1 µM (inactive) | 17.9 µM (inactive) | 65.2 µM (inactive) | 9.77 µM (inactive) | 25.6 µM (inactive) | 15.3 µM (inactive) | 6.62 µM (inactive) | 3.94 µM (inactive) | 5.11 µM (inactive) | 7.91 µM (inactive)
10 | CC(CCC(=O)O)(c1cc(Br)c(O)c(Br)c1)c1cc(Br)c(O)c(Br)c1 | > 100 µM (inactive) | > 100 µM (inactive) | > 100 µM (inactive) | 21.4 µM (inactive) | > 100 µM (inactive) | 93.1 µM (inactive) | > 100 µM (inactive) | 71.3 µM (inactive) | 65.8 µM (inactive) | 58.9 µM (inactive) | 83.8 µM (inactive) | 54.7 µM (inactive) | 54.8 µM (inactive) | 50.4 µM (inactive) | 52.4 µM (inactive) | 29.4 µM (inactive) | > 100 µM (inactive) | 57.9 µM (inactive) | 29.9 µM (inactive) | 41 µM (inactive)
11 | Cn1c2ccccc2c2ccc3c(c21)C(=O)C=CC3=O | 26.2 µM (inactive) | 4.33 µM (inactive) | 19.4 µM (inactive) | 0.738 µM (active) | 2.52 µM (inactive) | 10.5 µM (inactive) | 18.4 µM (inactive) | 1.75 µM (inactive) | 5.11 µM (inactive) | 3.39 µM (inactive) | 5.16 µM (inactive) | 5.6 µM (inactive) | 2.47 µM (inactive) | 11.5 µM (inactive) | 15.6 µM (inactive) | 15.2 µM (inactive) | 9.93 µM (inactive) | 26.5 µM (inactive) | 3.27 µM (inactive) | 12.1 µM (inactive)
